This is an account of results in ChEMBL document CHEMBL1201862, “PubChem BioAssay data set” (2004).

Among the test systems are SK-MEL-2; SF-268; IGROV-1; HCT-15; SK-OV-3; HT-29; SW-620; HOP-92; SF-539; NCI-H23; UACC-257; CCRF-CEM; HOP-62; DU-145; SNB-75; OVCAR-8; OVCAR-3; Malme-3M; EKVX; SR.
Common to all, as to test: inhibition of tumour cell growth, NCI panel, 48 h

The structures appear in SMILES notation.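 Following 48 hours of exposure in 96-well plates, responses at five concentrations were used to interpolate endpoints linearly. GI50 is the concentration that inhibits growth by half.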 Calls of active or inactive are those of the source. No stated cut-off is given here; in the data, active = GI50 up to about 1.1 µM and inactive = higher. Where only a bound is given, the exact number is not on record here.

`O=C1C=C(NCCOCCO)C(=O)c2c(O)ccc(O)c21`: the GI50 in the assay with SK-MEL-2 was 20.1 µM (inactive); in the assay with SF-268, 31.8 µM (inactive); in the assay on IGROV-1 it was 36.7 µM (inactive); with HCT-15, 22.9 µM; in the assay with SK-OV-3 it was 33.4 µM (inactive); with HT-29, 20.4 µM (inactive). For the same molecule, the GI50 in the assay on SW-620 was 18.1 µM (inactive); with HOP-92 it was 24.3 µM (inactive); in the assay on SF-539, 24 µM (inactive); in the assay on NCI-H23 it was 23.4 µM (inactive); in the assay with UACC-257 it was 20.8 µM (inactive); in the assay on CCRF-CEM, 27.4 µM (inactive). In addition, the GI50 is 58.6 µM (inactive) in the assay on HOP-62; 99.3 µM (inactive) in the assay on DU-145; 61.7 µM (inactive) in the assay with SNB-75; 28.2 µM (inactive) in the assay on OVCAR-8; 23.6 µM (inactive) in the assay on OVCAR-3; 11.9 µM (inactive) in the assay with Malme-3M.

As to `Fc1ccc(-c2sc(-c3cccs3)cc2Cc2cccs2)cc1`, the GI50 in the assay on SK-MEL-2 is > 100 µM (inactive); in the assay with SF-268 it was > 100 µM (inactive); with IGROV-1 it was > 100 µM (inactive); in the assay on HCT-15 it was above 100 µM; with SK-OV-3, > 100 µM (inactive); in the assay with HT-29, 80.2 µM (inactive). In addition, the GI50 in the assay on SW-620, with HOP-92, in the assay with EKVX, with SF-539, in the assay on NCI-H23 and in the assay with UACC-257 was > 100 µM (inactive) in each case. In addition, the GI50 was 91 µM (inactive) with CCRF-CEM; > 100 µM (inactive) in the assay with DU-145; > 100 µM (inactive) with SNB-75; > 100 µM (inactive) in the assay on OVCAR-8; > 100 µM (inactive) in the assay with OVCAR-3; > 100 µM (inactive) with Malme-3M.

As for `O=C(Nc1nnc(-c2ccccc2)o1)C(SC(=S)N1CCCCC1)c1ccccc1` (centres undefined), the GI50 is 17.7 µM (inactive) with SK-MEL-2; 15.9 µM (inactive) with IGROV-1; 4.98 µM (inactive) in the assay on SR; 5.02 µM with HCT-15; 28.4 µM (inactive) in the assay on SK-OV-3; 20.6 µM (inactive) in the assay with HT-29. In addition, the GI50 was 31.8 µM (inactive) with SW-620; 20.9 µM (inactive) in the assay with EKVX; 28.1 µM (inactive) in the assay on SF-539; 12.4 µM (inactive) in the assay on NCI-H23; 32.4 µM (inactive) in the assay with UACC-257; 3.35 µM (inactive) in the assay with CCRF-CEM. Moreover, the GI50 in the assay on HOP-62 is 18.3 µM (inactive); in the assay with DU-145, 17.2 µM (inactive); in the assay on SNB-75, 30.4 µM (inactive); in the assay on OVCAR-8 it was 26.5 µM (inactive); with OVCAR-3, 17.3 µM (inactive); in the assay with Malme-3M it was 26.2 µM (inactive).

`CC1=NNC(=O)C1C1C(=O)NN=C(c2c[nH]c3ccccc23)C1Br` (centres undefined): the GI50 in the assay on SK-MEL-2 is 21.1 µM (inactive); in the assay on SF-268, 32.7 µM (inactive); in the assay on IGROV-1, 1.09 µM (active); with HCT-15, above 100 µM; with SK-OV-3, 57.4 µM (inactive); in the assay on HT-29 it was 35.3 µM (inactive). Also, the GI50 with SW-620 is 40.6 µM (inactive); in the assay on HOP-92 it was > 100 µM (inactive); with EKVX it was 53.5 µM (inactive); with SF-539 it was 50.2 µM (inactive); in the assay with NCI-H23, 74.5 µM (inactive); with UACC-257 it was > 100 µM (inactive). Also, the GI50 with CCRF-CEM is 25.7 µM (inactive); in the assay with HOP-62, 40.1 µM (inactive); with DU-145 it was > 100 µM (inactive); in the assay with SNB-75, 13.1 µM (inactive); in the assay on OVCAR-8 it was 48.9 µM (inactive); in the assay with OVCAR-3, 26.3 µM (inactive). Besides, the GI50 in the assay on Malme-3M was 30.3 µM (inactive).

With `CSC1=C(C(=O)Nc2ccccc2)C(N)=NC1=O`, the GI50 in the assay with SK-MEL-2 was > 100 µM (inactive); in the assay with SF-268, > 100 µM (inactive); in the assay with SR it was 32.4 µM (inactive); in the assay on HCT-15 it was above 100 µM; in the assay on SK-OV-3, > 100 µM (inactive); in the assay on HT-29, > 100 µM (inactive). Also, the GI50 with SW-620 was > 100 µM (inactive); in the assay with EKVX it was 77.1 µM (inactive); in the assay with SF-539 it was > 100 µM (inactive); in the assay with NCI-H23, > 100 µM (inactive); in the assay with UACC-257, > 100 µM (inactive); in the assay with CCRF-CEM, > 100 µM (inactive). The GI50 in the assay on DU-145, with SNB-75, with OVCAR-8 and in the assay with Malme-3M was > 100 µM (inactive) throughout.

As to `CNc1cccc2c1C(C)C[C@]1(C)C(=O)Nc3ccccc3[C@H]21` (some centres undefined), the GI50 with SK-MEL-2 was 24.1 µM (inactive); in the assay with SF-268, 34 µM (inactive); in the assay on IGROV-1, 35.8 µM (inactive); with SR, 23.8 µM (inactive); in the assay on HCT-15, 39.4 µM; in the assay with HT-29, 28 µM (inactive). The GI50 was 33.9 µM (inactive) in the assay with SW-620; 41.7 µM (inactive) in the assay with EKVX; 42 µM (inactive) with SF-539; 60.1 µM (inactive) in the assay with NCI-H23; 13.4 µM (inactive) in the assay with UACC-257; 40.7 µM (inactive) in the assay with CCRF-CEM. Also, the GI50 with HOP-62 is 19.8 µM (inactive); in the assay on DU-145, 39.1 µM (inactive); with SNB-75 it was 12.1 µM (inactive); with OVCAR-8, 19.1 µM (inactive); in the assay on OVCAR-3, 17.5 µM (inactive); with Malme-3M it was 19.5 µM (inactive).

Consider `O=C(O)C(SC1=NC(=O)C2(NN1)c1ccccc1-c1ccccc12)SC1=NC(=O)C2(NN1)c1ccccc1-c1ccccc12`, for which the GI50 in the assay with SK-MEL-2 is > 10 µM (inactive); in the assay with SF-268 it was > 10 µM (inactive); with IGROV-1 it was > 10 µM (inactive); in the assay on HCT-15, above 10 µM; in the assay on SK-OV-3 it was > 10 µM (inactive); in the assay on HT-29 it was > 10 µM (inactive). In addition, the GI50 with SW-620 was > 10 µM (inactive); in the assay on HOP-92, > 10 µM (inactive); in the assay on EKVX, 9.64 µM (inactive); in the assay with SF-539, > 10 µM (inactive); in the assay on NCI-H23 it was > 10 µM (inactive); in the assay on UACC-257, > 10 µM (inactive). The GI50 with CCRF-CEM is > 10 µM (inactive); with HOP-62, > 10 µM (inactive); with DU-145 it was > 10 µM (inactive); with SNB-75, 2.74 µM (inactive); in the assay on OVCAR-8, > 10 µM (inactive); in the assay with OVCAR-3 it was > 10 µM (inactive). Also, in the assay on Malme-3M, the GI50 was > 10 µM (inactive).

Consider `c1ccc(CSCCc2ccncc2)cc1`, for which the GI50 with SK-MEL-2 was 41.5 µM (inactive); in the assay with SF-268, > 100 µM (inactive); with IGROV-1, > 100 µM (inactive); in the assay on HCT-15, above 100 µM; in the assay on SK-OV-3, > 100 µM (inactive); in the assay with HT-29 it was > 100 µM (inactive). Further, the GI50 with SW-620 is > 100 µM (inactive); with HOP-92 it was 15.2 µM (inactive); in the assay on EKVX it was 67.9 µM (inactive); in the assay with SF-539 it was > 100 µM (inactive); with NCI-H23, > 100 µM (inactive); in the assay on UACC-257, 53 µM (inactive). For the same molecule, the GI50 in the assay with CCRF-CEM, in the assay with HOP-62, in the assay with DU-145, with OVCAR-8, in the assay on OVCAR-3 and in the assay with Malme-3M was > 100 µM (inactive) throughout.

For `CC(OC(C)(C)C)[C@H](NC(=O)OCc1ccccc1)C(=O)NC(OCc1ccccc1)[C@H]1COC(C)(C)O1` (some centres undefined), the GI50 was > 10 µM (inactive) in the assay on SK-MEL-2; 40.3 µM (inactive) in the assay with SF-268; > 10 µM (inactive) in the assay with IGROV-1; above 10 µM in the assay with HCT-15; > 10 µM (inactive) in the assay with SK-OV-3; > 10 µM (inactive) in the assay with HT-29. Also, the GI50 in the assay with SW-620, in the assay on HOP-92, with EKVX, in the assay on SF-539, in the assay with NCI-H23 and in the assay with UACC-257 was > 10 µM (inactive) each time. For the same molecule, the GI50 with CCRF-CEM was > 10 µM (inactive); in the assay with HOP-62, > 10 µM (inactive); with DU-145, > 100 µM (inactive); in the assay on SNB-75, > 10 µM (inactive); in the assay with OVCAR-8 it was > 10 µM (inactive); in the assay with OVCAR-3, > 10 µM (inactive). Moreover, in the assay on Malme-3M, the GI50 is > 10 µM (inactive).

Regarding `CCCCCCCCCCCCO[PH](=O)OCCCCCCCCCCCC`, the GI50 was > 100 µM (inactive) in the assay with SK-MEL-2; > 100 µM (inactive) with SF-268; > 100 µM (inactive) in the assay on IGROV-1; above 100 µM in the assay on HCT-15; > 100 µM (inactive) in the assay on SK-OV-3; > 100 µM (inactive) in the assay on HT-29. Further, the GI50 in the assay on SW-620 was > 100 µM (inactive); with HOP-92, > 100 µM (inactive); with EKVX, > 100 µM (inactive); with SF-539 it was > 100 µM (inactive); with NCI-H23 it was > 100 µM (inactive); in the assay on UACC-257, 28.3 µM (inactive). The GI50 in the assay with CCRF-CEM, in the assay on HOP-62, with DU-145, with SNB-75, with OVCAR-8 and with OVCAR-3 was > 100 µM (inactive) throughout. In addition, the GI50 with Malme-3M was > 100 µM (inactive).

For the molecule `C=CCn1c(=O)c2ccccc2[n+]2c(C)c(C(=O)OCC)sc12`, the GI50 in the assay on SK-MEL-2 is > 100 µM (inactive); in the assay with SF-268 it was > 100 µM (inactive); with IGROV-1 it was > 100 µM (inactive); in the assay on SR, > 100 µM (inactive); with HCT-15 it was above 100 µM; in the assay with SK-OV-3, > 100 µM (inactive). Further, the GI50 with HT-29, with SW-620, in the assay on EKVX, with SF-539, in the assay on NCI-H23 and in the assay on UACC-257 was > 100 µM (inactive) in each case. Also, the GI50 is > 100 µM (inactive) with CCRF-CEM; 42.4 µM (inactive) with HOP-62; > 100 µM (inactive) in the assay with DU-145; > 100 µM (inactive) with OVCAR-8; > 100 µM (inactive) with OVCAR-3.
